Experimental data as given in US9073961B2, “Substitution derivatives of N6 -benzyladenosine-5′-monophosphate, methods of preparation thereof, use thereof as medicaments, and therapeutic preparations containing these compounds” (UNIVERZITA PALACKEHO V OLOMOUCI, priority 2010, dated 2015).

Key:
[1] = tested on: Normal human fibroblasts BJ; assay: Calcein AM cytotoxicity assay, BJ; type: cell-based; conditions: 72 hours incubation
Source text: (§1) Because toxic compounds negatively influence metabolic processes in cells, many standard cytotoxicity assays are based on measurement of metabolisation rate of various artificial substrates. Resulting product is then quantified e.g. by means of spectrometry. The assays can be easily modified for use in 96-well plates. For evaluation of cytotoxic effect of the novel substituted 9-substituted cytokinin derivatives of this invention, a microtiter assay based on quantification of metabolisation of Calcein AM was used. The assay is widely used in drug screening programs and in chemosensitivity testing. In the living cells, Calcein AM is enzymatically hydrolysed and accumulation of resulting calcein is manifested by green fluorescence.
(§2) In the routine screening the following cell lines have been used: CEM (T-lymphoblastoid leukemia), HL-60 (promyelocytic leukemia), K-562 (human erythroleukemia), MCF-7 (breast carcinoma), HOS (human osteogenic sarcoma), and G-361 (human malignant melanoma). Normal human fibroblasts BJ were used as a control for routine screening of the compounds. The cells were kept in Nunc/Corning 80 cm^2 plastic bottles and grown in cell culture medium (DMEM containing 5 g/l glucose, 2 mM glutamine, 100 U/ml penicilline, 100 μg/ml streptomycine, 10% fetal bovine serum and sodium hydrogencarbonate), the compounds were prepared according to the procedure of the present invention.
(§3) The cell suspensions were prepared and diluted according to the particular cell type and the expected target cell density (2.500-30.000 cells per well based on cell growth characteristics) and pippetted (80 μl) into 96-well plates. Inoculates were allowed a pre-incubation period of 24 hours at 37° C. and 5% CO2 for stabilisation. Tested compound was added in total volume of 20 μl of water at time zero. Usually, test compound was evaluated at six 3-fold dilutions. In routine testing, the highest concentration tested was 166.7 μM. All drug concentrations were tested in triplicates. Incubations of cells with the test compounds lasted for 72 hours at 37° C., in 5% CO2 atmosphere and 100% humidity. At the end of incubation period Calcein AM in PBS was added into final concentration of 1 μg/ml. After another 1 hour of incubation fluorescence (FD) was measured with the Labsystem FIA Reader Fluoroscan Ascent (Microsystems). Tumor cell survival (TCS) was estimated using the following equation: […]=(FDdrug exposed well/FDcontrol well)×100%. The GI50 value, the drug concentration causing 50% reduction of esterase activity, was calculated from the obtained dose response curves (FIG. 1).
(§4) Cytoxicity of novel compounds was tested on panel of cell lines of different histogenetic and species origin (Table 3). […] The effective novel derivatives killed tumour cells in concentrations close to 0.1-50 μM.

[2] = tested on: CEM (T-lymphoblastoid leukemia); assay: Calcein AM cytotoxicity assay, CEM; type: cell-based; conditions: 72 hours incubation, Calcein AM
Source text: as §1, §2, §3, §4

MCF-7 (breast carcinoma) = assay: Calcein AM cytotoxicity assay, MCF7; type: cell-based; conditions: 72 hours incubation
Source text: as §1, §2, §3, §4

[3] = tested on: HL-60 (promyelocytic leukemia); assay: Calcein AM cytotoxicity assay, HL60; type: cell-based, human; conditions: 72 hours incubation
Source text: as §1, §2, §3, §4

[4] = tested on: HOS (human osteogenic sarcoma); assay: Calcein AM cytotoxicity assay, HOS; type: cell-based; conditions: 72 hours incubation
Source text: as §1, §2, §3, §4

[5] = tested on: K-562 (human erythroleukemia); assay: Calcein AM cytotoxicity assay, K-562; type: cell-based; conditions: 72 hours incubation
Source text: as §1, §2, §3, §4

[6] = tested on: cytokinin-dependent tobacco callus Nicotiana tabacum L. cv. Wisconsin 38; assay: Growth of cytokinin-dependent tobacco callus; type: cell-based; conditions: for Activity (%) [10^−5 mol · l^−1 KR = 100%]: at concentration with highest activity, relative to control cytokinin; for Concentration with highest activity: tobacco callus fresh weight after four weeks
Experimental: Cytokinin effect of newly prepared derivatives was tested using cytokinin-dependent tobacco callus. The cytokinin-dependent tobacco callus Nicotiana tabacum L. cv. Wisconsin 38 was maintained at 25° C. in darkness on modified MS medium, containing per 1 liter: 4 μmol of nicotinic acid, 2.4 μmol of pyridoxine hydrochloride, 1.2 μmol of thiamine, 26.6 μmol of glycine, 1.37 μmol of glutamine, 1.8 μmol of myo-inositol, 30 g of sucrose, 8 g of agar, 5.37 μmol of NAA and 0.5 μmol of the compound tested. Subcultivation was carried out every three weeks. Fourteen days before the bioassay, the callus tissue was transferred to the media without 6-benzylaminopurine. The biological activity was determined from the increase of the fresh callus weight after four weeks of cultivation. Five replicates were prepared for each concentration of the compound tested and the entire test was repeated twice. […] The compounds to be tested were dissolved in dimethylsulfoxide (DMSO) and the solution brought up to 10^−3 M with distilled water. […] The stimulatory activity was calculated from the dose-dependent fresh weight callus growth curves.
From the obtained data, the concentration with the highest activity was selected for each compound tested. Relative activity of the compound at this concentration was calculated (Table 5). […]

Compound	GI50 [1] [µM]	GI50 [2] [µM]	GI50 (MCF-7 (breast carcinoma)) [µM]	GI50 [3] [µM]	GI50 [4] [µM]	GI50 [5] [µM]	Activity (%) [10^−5 mol · l^−1 KR = 100%] [6] [%]	Concentration with highest activity [6]
O=P(O)(O)OC[C@H]1O[C@@H](n2cnc3c(NCc4ccc(F)c(F)c4F)ncnc32)[C@H](O)[C@@H]1O [Compound 38, 6-(2,3,4-trifluorobenzylamino)purine riboside-5′-monophosphate]	> 167	58.2	> 167	13	> 167	> 167	–	–
O=P(O)(O)OC[C@H]1O[C@@H](n2cnc3c(NCc4cc(F)cc(F)c4)ncnc32)[C@H](O)[C@@H]1O [Compound 37, 6-(3,5-difluorobenzylamino)purine riboside-5′-monophosphate]	> 167	24.5	> 167	9.1	> 167	> 167	105 ± 3	10^−6 mol · l^−1
O=P(O)(O)OC[C@H]1O[C@@H](n2cnc3c(NCc4ccc(Cl)cc4Cl)ncnc32)[C@H](O)[C@@H]1O [Compound 24, 6-(2,4-dichlorobenzylamino)purine riboside-5′-monophosphate]	> 167	86.7	127	96.3	> 167	85.7	–	–
COc1ccc(CNc2ncnc3c2ncn3[C@@H]2O[C@H](COP(=O)(O)O)[C@@H](O)[C@H]2O)cc1O [Compound 30, 6-(3-hydroxy-4-methoxybenzylamino)purine riboside-5′-monophosphate]	> 167	79.3	> 167	68.9	> 167	> 167	–	–
O=P(O)(O)OC[C@H]1O[C@@H](n2cnc3c(NCc4c(F)ccc(F)c4F)ncnc32)[C@H](O)[C@@H]1O [Compound 40, 6-(2,3,6-trifluorobenzylamino)purine riboside-5′-monophosphate]	> 167	–	> 167	13	> 167	> 167	–	–
O=P(O)(O)OC[C@H]1O[C@@H](n2cnc3c(NCc4cccc(Br)c4)ncnc32)[C@H](O)[C@@H]1O [Compound 8, 6-(3-bromoobenzylamino)purine riboside-5′-monophosphate]	> 167	5	> 167	8	> 167	19.7	102 ± 11	10^−6 mol · l^−1
O=P(O)(O)OC[C@H]1O[C@@H](n2cnc3c(NCc4ccc(F)c(Cl)c4)ncnc32)[C@H](O)[C@@H]1O [Compound 41, 6-(3-chloro-4-fluorobenzylamino)purine riboside-5′-monophosphate]	> 167	3.4	> 167	3.5	> 167	4.1	107 ± 4	10^−6 mol · l^−1
O=P(O)(O)OC[C@H]1O[C@@H](n2cnc3c(NCc4ccccc4Br)ncnc32)[C@H](O)[C@@H]1O [Compound 7, 6-(2-bromobenzylamino)purine riboside-5′-monophosphate]	> 167	12.3	> 167	6.6	> 167	10	100 ± 4	10^−5 mol · l^−1
O=P(O)(O)OC[C@H]1O[C@@H](n2cnc3c(NCc4ccc(Cl)c(Cl)c4)ncnc32)[C@H](O)[C@@H]1O [Compound 25, 6-(3,4-dichlorobenzylamino)purine riboside-5-monophosphate]	> 167	3	88.8	1.1	> 167	6.5	–	–
COc1ccc(CNc2ncnc3c2ncn3[C@@H]2O[C@H](COP(=O)(O)O)[C@@H](O)[C@H]2O)c(OC)c1 [Compound 32, 6-(2,4-dimethoxybenzylamino)purine riboside-5′-monophosphate]	> 167	> 167	> 167	39	> 167	> 167	–	–
COc1cc(CNc2ncnc3c2ncn3[C@@H]2O[C@H](COP(=O)(O)O)[C@@H](O)[C@H]2O)cc(OC)c1 [Compound 34, 6-(3,5-dimethoxybenzylamino)purine riboside-5′-monophosphate]	> 167	–	> 167	18.8	> 167	> 167	–	–
O=P(O)(O)OC[C@H]1O[C@@H](n2cnc3c(NCc4ccc(Br)cc4)ncnc32)[C@H](O)[C@@H]1O [Compound 9, 6-(4-bromobenzylamino)purine riboside-5′-monophosphate]	> 167	20.6	> 167	47.7	> 167	68.2	–	–
O=P(O)(O)OC[C@H]1O[C@@H](n2cnc3c(NCc4cc(F)c(F)cc4F)ncnc32)[C@H](O)[C@@H]1O [Compound 39, 6-(2,4,5-trifluorobenzylamino)purine riboside-5′-monophosphate]	–	–	–	–	–	–	105 ± 3	10^−5 mol · l^−1
O=P(O)(O)OC[C@H]1O[C@@H](n2cnc3c(NCc4ccc(F)cc4F)ncnc32)[C@H](O)[C@@H]1O [Compound 36, 6-(2,4-difluorobenzylamino)purine riboside-5-monophosphate]	> 167	7.1	> 167	3.4	> 167	7.4	–	–
COc1cccc(CNc2ncnc3c2ncn3[C@@H]2O[C@H](COP(=O)(O)O)[C@@H](O)[C@H]2O)c1OC [Compound 31, 6-(2,3-dimethoxybenzylamino)purine riboside-5′-monophosphate]	> 167	> 167	> 167	109	> 167	> 167	–	–
O=P(O)(O)OC[C@H]1O[C@@H](n2cnc3c(NCc4ccc(F)cc4Cl)ncnc32)[C@H](O)[C@@H]1O [2-chloro-4-fluorobenzylamino, 6-(2-chloro-4-fluorobenzylamino)purine riboside-5′-monophosphate]	> 167	20.9	> 167	9	> 167	11.7	108 ± 4	10^−5 mol · l^−1
